We go through four compounds from patent US9408845B2, “Formulations containing pyridazine compounds” (Northwestern University, priority 2006, dated 2016).

Series [1] has as its system QT interval in Lead II electrocardiogram, anesthetized guinea pigs. The series can be described thus: Cardiac QT interval prolongation assay in anesthetized guinea pigs. To be noted: 15 mg/kg PO. Here is the method:
The QT interval studies are performed by evaluating compounds for effects on QT interval in Lead II electrocardiograms measured in anesthetized guinea pigs (Hirohashi et al., 1991, Arzneim.-Forsch./Drug Res 41:9-18), one of the species recommended in the FDA white paper. Vehicle or compound is administered orally at 15 mg/kg (dosing volume of 10 ml/kg) to groups of male guinea pigs (weighing 330-350 g), with 5 animals per group. […] Heart rate, arterial blood pressure, and QT intervals are measured at baseline, and at 15, 30, 45, and 60 min after compound administration. Sotalol administered iv at 0.3 mg/kg serves as the positive control compound. The QT intervals are corrected for changes in heart rate using both Bazetes and Fridericia's formulae. Any increase in QT interval values over baseline values exceeding the upper 95% confidence limit of the mean changes at the corresponding time point in the vehicle-treated control group for two consecutive observation times indicates significant QT interval prolongation in the individually treated animals.
The QT intervals (QTc) were corrected for changes in heart rate using both Bazett's and Fridericia's formulae.
The test substance was dissolved in 2% Tween 80 and administered by oral administration. The substance was treated at 15 mg/kg with a dosing volume of 10 ml/kg. Duncan Hartley derived guinea pigs provided by MDS Pharma Services—Taiwan Ltd were used. Sotalol was obtained from Sigma, USA.
Groups of guinea pigs (weighing 330-350 g) with 5 animals each were employed. The animals were anesthetized with urethane (1500 mg/kg, IV bolus injection in a volume of 5 ml/kg) and breathed spontaneously. Lead II ECG was obtained with subdermal needle electrodes and ECG signal conditioner. Heart rate was measured with a pulse rate tachometer. The carotid artery was cannulated with a catheter that was connected to a pressure transducer and a pressure processor for measurements of arterial blood pressure (BP). […] QTC intervals were obtained by correction for heart rate changes using Bazett's and Fridericia's formulae. Increase in QTc interval in individual treated guinea pigs that lies outside the upper limit of 95% confidence limits (mean±SD) of the changes for the vehicle-treated control at corresponding time points for two consecutive times is considered significant.

Another series has as its system liver histology, mice. The series can be described thus: Chronic, therapeutic dose liver toxicity assay. The source says:
Mice will be anesthetized and sacrificed as described above. Livers will be removed, fixed in 4% (v/v) paraformaldehyde and paraffin-embedded for histology. To assess histological toxicity, 4 μm liver sections will be stained with haematoxylin and eosin. Two independent observers blinded to the treatment groups will perform microscopic assessment of the tissue for injury.
After two weeks of treatment, mice are sacrificed and liver toxicity analyzed as described above. For each chronic toxicity assay, 5 mg of compound is required.
Mice were anesthetized and killed as described above. Livers were removed, fixed in 4% (v/v) paraformaldehyde, and paraffin-embedded for histology. To assess histological toxicity, 4 pan liver sections were stained with hematoxylin and eosin. Two independent observers blinded to the treatment groups performed microscopic assessment of the tissue for injury.

Series [2] deals with human Aβ infusion mouse model. The series can be described thus: Human Aβ infusion mouse model, hippocampal neuroinflammation and synaptic biochemical endpoints. It counts as in vivo. Particulars: hippocampus, Aβ-infused mice, oral compound. Here is the method: The study design and treatment paradigm for intracerebroventricular (ICV) infusion of human oligomerie Aβ1-42 into the mouse will be as described previously (Craft et al., Neurobiol Aging 25:1283-1292, 2004b), except that compound administration will be by mouth. Female C57Bl/6 mice (Harlan) weighing 20-25 g (3-4 months old) will be housed in a pathogen free facility under an approximate 12 h/12 h dark and light cycle and they will have access ad libitum to food and water.
(§1) Once per day treatment will begin at day 21 after start of Aβ ICV infusion and continue for 14 days. Beginning at day 50 after start of Aβ ICV infusion, the Y maze test of spontaneous alternation will be used to evaluate hippocampus dependent spatial learning as described previously (Craf et al., J Mol. Neurosci. 24:115-122, 2004a). Briefly, each mouse will be placed in the “start” arm and then released to choose one of the two other arms. The mouse will be blocked from exiting the chosen arm for 30 s then they will be placed back in the start arm and released again to choose one of the two other arms. If the second choice is different from the first one, the mouse will be scored as alternating. Mice will be tested for 10 days with one trial per day, and a mean percent alternation will be calculated for each mouse. […] The brain will be removed and longitudinally bisected as described previously (Craft et al., Neurobiolo Aging 25:12834292, 2004b). […] The hippocampus will be dissected from the left half of the brain and snap-frozen for subsequent biochemical evaluation.
S100B levels in hippocampal supernatants will be measured by a empium-based ELISA essentially as previously described (Van Eldik and Griffin, Biochem Biophys Acta 1223:398-403, 1994). Synaptophysin levels in hippocampal supernatants will be quantified by ELISA following the procedure described previously (Craft at al, 20041, supra). PSD-95 levels will be determined by Western blots using anti-PSD-95 antibodies (1:100,000 dilution; Upstate Biotechnology) as described (Craft et al., 2004b).
It was previously shown that Aβ-induced neuroinflammation is an early event associated with the onset and progression of pathophysiology, and can be suppressed by an inhibitor of glial activation. Female C57Bl/6 mice (Harlan) weighing […] (3-4 months old) were housed in a pathogen free facility under an approximate 12 h/12 h dark and light cycle and had access ad libitum to food and water. All animal procedures were approved by the Northwestern Animal Care and Use Committee.

The test system of series [3] is LPS-induced IL-1β production in BV-2 microglia cells. The experiment in a line: LPS-induced IL-1β production in BV-2 microglial cells. To be noted: Mus musculus, BV-2, 16 h, read-out: IL-1β, concentration required for 50% inhibition.
Series [4] has as its system nitric oxide (NO) production in BV-2 microglial cells. The experiment in a line: LPS-stimulated accumulation of nitrite (NO metabolite) in BV-2 cells, Griess assay. The format is cell-based, mouse. Particulars: Mus musculus, read-out: NO, concentration required for 50% inhibition.
For series [5], the system named is human Aβ infusion mouse model. The series can be described thus: Human Aβ infusion mouse model, Y maze behavioral assay. It counts as in vivo. To be noted: 1.25, 2.5, 5, and 10 mg/kg.
Text: as §1

The conditions of series [6]: mouse, in vivo.
The conditions of series [7]: Caccia et al., 1985; cited from earlier work.

“Also recorded” adds a separate entry of the source. Read-outs that look alike come from different tables or passages of the source.

On to `Cc1cc(-c2ccccc2)nnc1N1CCN(c2ncccn2)CC1` [MW01-2-151SRM, 4-methyl-6-phenyl-3-(4-pyrimidin-2-ylpiperazin-1-yl)pyridazine], for which, in series [1], the “effect on heart rate” value is “no significant effects” and the “effect on mean blood pressure” value is recorded as “no significant effects”. The “QTc / QT interval prolongation” value in series [1] (60 min post-dosing, 5 guinea pigs) was “did not cause any significant prolongation; also recorded: Neither compound increased”. Moreover, the “liver toxicity score versus control mice” value in the series with liver histology, mice (mouse, in vivo, po, […]) was “no significant differences”. Further, in series [2], the “loss of PSD-95” value is recorded as “prevented”, the loss of synaptophysin entry was “prevented”, the “up-regulation of IL-1β” value is listed as “blocked” and the “up-regulation of S100B” value is given as “blocked”. The IC50 in series [3] was found to be 8.3 ± 5.8 µM. Also, the IC50 in series [4] (LPS-stimulated BV-2 cells, 16 hrs) was greater than 25 µM. In addition, the “prevention of Y-maze behavioral deficit” value in series [5] is “significantly effective”.

Regarding `c1ccc(-c2cc(-c3ccccc3)c(N3CCN(c4ncccn4)CC3)nn2)cc1` [MW01-5-188WH, 4,6-diphenyl-3-(4-pyrimidin-2-ylpiperazin-1-yl)pyridazine], in the series with liver histology, mice (mouse, in vivo, po, […]), the “liver toxicity score versus control mice” value is given as “no significant differences”. The oral bioavailability properties entry in series [6] is given as “good oral bioavailability”. The “time of decline to basal levels / bulk clearance, plasma/blood” value in series [6] (po) is no more than 120 min. Also, the IC50 in series [4] (BV-2, 16 h) was greater than 25 µM.

On to `Cc1cc(-c2ccccc2)nnc1NCCN1CCOCC1` [minaprinc, minaprine], for which, in series [7], the brain/blood ratio result was “about 2”.

`c1ccc(-c2cc(-c3ccncc3)c(N3CCN(c4ncccn4)CC3)nn2)cc1` [MW01-6-189WH, 4-pyridyl-6-phenyl-3-(4-pyrimidin-2-ylpiperazin-1-yl)pyridazine]: the “liver toxicity score versus control mice” value in the series on liver histology, mice (C57Bl/6 mice, […] oral, 2 weeks, scale 0 (best) to 9 (worst)) is on record as “no significant differences”. In series [2], the “loss of PSD-95” value is recorded as “prevented”, the loss of synaptophysin result is “trend toward preventing”, the “up-regulation of IL-1β” value was “blocked” and the “up-regulation of S100B” value is “blocked”. The “prevention of Y-maze behavioral deficit” value in series [5] is on record as “significantly effective”.
